# Literature values as cited in publication PMC9311059, “P‐Glycoprotein and Breast Cancer Resistance Protein Transporter Inhibition by Cyclosporine and Quinidine on the Pharmacokinetics of Oral Rimegepant in Healthy Subjects” (Clinical Pharmacology in Drug Development, 2022).
# Conditions: oral midazolam coadministered with cyclosporine; cited from earlier work
structure (smiles),measurement,value
Cc1ncc2n1-c1ccc(Cl)cc1C(c1ccccc1F)=NC2 [midazolam],change in midazolam Cmax,no meaningful change
same,increase in midazolam AUC,46%
